Assay results reported in paper PMC8229129, “Local Colonic Administration of a Serine Protease Inhibitor Improves Post-Inflammatory Visceral Hypersensitivity in Rats” (Pharmaceutics, 2021).
Values joined by “and” are separate entries in the source; they are usually repeats but may differ in a detail not shown here. Equal values may be shown once.

How the values were obtained:
[1] = Pharmacokinetics after intravenous administration (plasma, LC-MS/MS, PKSolver two-compartment model); type: in vivo, Sprague–Dawley rats; conditions: rat, i.v. 1 mg/kg
Method: To evaluate the pharmacokinetic properties of UAMC-00050, it was administered in male Sprague–Dawley rats (200–225 g) either colonically (5 mg/kg, in a volume of 200 µL 5% DMSO solution) or intravenously (1 mg/kg in a volume of 200 µL 5% DMSO solution). Plasma samples were collected after 5, 15, 30, 45, 60, 90, 120, and 180 min via the tail vein and stored at −80 °C until analysis.
Sample preparation and analysis of plasma samples consisted of protein precipitation followed by direct injection in a liquid chromatography–tandem mass spectrometry (LC-MS/MS) instrument. Briefly, 100 µL of plasma was spiked with 20 µL of nordazepam-D5 used as internal standard for quantification (yielding in a final concentration of 485 ng/mL) and afterwards 180 µL of acetonitrile was added to precipitate proteins. Subsequently, the samples were vortexed for 2.5 min at 2000× g and centrifuged for 5 min at 10,000× g. In a next step, 100 µL of the supernatant was transferred to a 0.20 µm centrifugal filter to remove remaining particles. After centrifugation for 5 min at 10,000× g, the remaining filtrate was transferred to an autosampler vial ready to be analyzed with LC-MS/MS. A seven-level point calibration curve with final concentrations ranging between 5 and 1000 ng/mL and a curve weighting factor of 1/x^2 was prepared in blank mouse plasma using different working solution standards of UAMC-00050 and a fixed amount of internal standard. The lower limit of quantification of the method was 5 ng/mL.
A gradient was applied as follows: 0–0.5 min: 5% B; 0.5–10 min 5–100% B; 10–12 min 100% B; and 12–12.1 min 5% B. The total run time was 18 min and the injection volume was set to 5 µL. Detection and quantification of UAMC-00050 were performed with an Agilent 6410 triple quadrupole MS system with an electrospray interface (ESI) operating in positive ionization mode. The following source parameters were applied: gas temperature 350 °C, gas flow 10 L/min, nebulizer 35 psi, and capillary voltage 4000 V. Compound-dependent MS parameters are summarized in Table 1. The most abundant transition of UAMC-00050 was used as quantifier and the other transitions were used for confirmation (qualifiers). For compound confirmation, the following criteria were used: the quantifier/qualifier ratio should fall within ±15% of the ratio observed in calibrators and the relative retention time should fall within 2.5% of the values observed in the calibrators.
All data are presented as mean ± SEM or as median (IQR). Pharmacokinetic analysis and modeling of the plasma concentration–time data was performed using PKSolver. Other statistical analysis and data visualization processes were performed using R software (version 4.0.3) and GraphPad Prism (version 7.04). The nominal significance level was 0.05 for all tests. The development of body weight, VMR results, and colonic compliance were assessed with generalized estimating equations (GEE) using an unstructured working correlation matrix, followed by Fisher’s least significant difference (LSD) post hoc test on prespecified pairwise comparisons of interest. Inflammatory parameters were analyzed using two-way analysis of variance (ANOVA), followed by Student–Newman–Keuls (SNK) post hoc testing when applicable. To evaluate the differences in proteolytic activities between control, post-colitis, treated, and untreated rats, a two-way ANOVA was conducted. Main effects were tested on split files with a Mann–Whitney U test with Bonferroni correction. To assess correlations between specific fecal or colonic proteolytic activities and inflammatory parameters, the pairwise comparisons of interest were determined a priori. Spearman’s rank order correlation coefficient was used and the Holm–Bonferroni method was applied to correct for multiplicity.

[2] = system: thrombin; parameters: method as in PMID 29911328; conditions: in vitro; cited from earlier work

CC(=O)Nc1ccc(OP(=O)(Oc2ccc(NC(C)=O)cc2)C(Cc2ccc(N=C(N)N)cc2)NC(=O)OCc2ccccc2)cc1.Cl (stereo not shown) [UAMC-00050]
k12 ([1]; distribution to the peripheral compartment): 0.028 min⁻¹ | k21 ([1]; redistribution from peripheral to central compartment): 0.014 min⁻¹ | A ([1]; two-compartment model): 500.7 ng/mL | AUC 0-inf ([1]; two-compartment model): 5915 ng·min/mL | AUC 0-t ([1]; two-compartment model): 5422 ng·min/mL | AUMC ([1]; two-compartment model): 200,489 ng/mL*min2 | Alpha ([1]; two-compartment model): 0.119 min⁻¹ | B ([1]; two-compartment model): 17.9 ng/mL | Beta ([1]; two-compartment model): 0.010 min⁻¹ | C0 ([1]; two-compartment model): 518.7 ng/mL | CL ([1]; two-compartment model): 0.0005072 (mg)/(ng/mL)/min | CL2 ([1]; two-compartment model): 0.0001621 (mg)/(ng/mL)/min | MRT ([1]; two-compartment model): 33.9 min | V ([1]; two-compartment model): 0.006 (mg)/(ng/mL) | V2 ([1]; two-compartment model): 0.011 (mg)/(ng/mL) | Vss ([1]; two-compartment model): 0.017 mg/(ng/mL) | k10 ([1]; two-compartment model): 0.087 min⁻¹ | k12 ([1]; two-compartment model): 0.028 min⁻¹ | k21 ([1]; two-compartment model): 0.014 min⁻¹ | t1/2Beta ([1]; two-compartment model): 66.5 min | t1/2Alpha ([1]; two-compartment model, 1 mg/kg): 5.800 min and 5.8 min | inhibition of thrombin [2]: efficiently inhibits
